Results published in patent US20230019236A1, “PROTEIN TYROSINE PHOSPHATASE INHIBITORS AND METHODS OF USE THEREOF” (Calico Life Sciences LLC, priority 2019, published 2023).
pIC50: −log10 of the molar value.

Legend:
[1] = biological target: T1, His tagged PTPN2 (TC45) protein (Homo sapiens, UniProt P17706); assay: Mobility Shift Assay used to determine potency of PTPN2 inhibitors; format: biochemical; conditions: Table 2; read-out: PTPN2 MSA IC50
T1 construct: made in house
T1 sequence (P17706 with tags, fused parts or gaps isoform P17706-2): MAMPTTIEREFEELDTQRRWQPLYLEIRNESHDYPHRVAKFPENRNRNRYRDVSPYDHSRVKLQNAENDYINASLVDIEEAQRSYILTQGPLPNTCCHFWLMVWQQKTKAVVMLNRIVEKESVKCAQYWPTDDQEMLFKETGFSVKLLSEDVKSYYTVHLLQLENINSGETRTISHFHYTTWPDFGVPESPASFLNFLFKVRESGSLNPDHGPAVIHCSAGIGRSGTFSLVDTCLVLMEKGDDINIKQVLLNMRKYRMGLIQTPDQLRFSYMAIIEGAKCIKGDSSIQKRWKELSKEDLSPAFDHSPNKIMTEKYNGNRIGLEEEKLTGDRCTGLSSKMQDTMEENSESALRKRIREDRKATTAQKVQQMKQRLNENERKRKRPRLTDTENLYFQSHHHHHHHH
Procedure: Example 292: Mobility Shift Assay used to determine potency of PTPN2 inhibitors
Compound activity was determined using in house His tagged PTPN2 (TC45) protein (SEQ ID NO: 1) in an in vitro enzymatic reaction. The enzymatic assay used to determine activity was a mobility shift assay using a LabChip EZ Reader by Caliper Life Sciences. The enzymatic reaction was carried out in assay buffer (50 mM HEPES pH 7.5, 1 mM EGTA, 10 mM EDTA, 0.01% Tween® 20, and 2 mM DTT). The compounds were dispensed on a white 384 well ProxiPlate™ (PerkinElmer Catalog#6008289) plate using the Labcyte Echo at varying concentrations (12 point, 1:3 dilution). The enzyme (at 0.5 nM) was incubated with compound for 10 minutes at room temperature. Then the substrate (phosphorylated insulin receptor probe sequence: ((OG488)—{NH—CH2—CH2—O—CH2—CH2—O—CH2—CO)—T—R—D—I—(PY)—E—T—D—Y—Y—R—K—K—NH2) (SEQ ID NO: 2) was added at 2 μM to the plates and incubated for another 10 minutes at room temperature. Finally, a quench solution (water and 4-bromo-3-(2-oxo-2-propoxyethoxy)-5-(3-{[1-(phenylmethanesulfonyl)piperidin-4-yl]amino}phenyl)thiophene-2-carboxylic acid) was added to the plates, which were then run on the EZ Reader (excitation 488 nm, emission 530 nm) to measure % conversion (the amount of phosphorylated substrate which was de-phosphorylated by PTPN2). […] The % inhibition was then used to calculate the IC50 values.

[2] = biological target: T2, His tagged full-length PTP1B protein (Homo sapiens, UniProt P18031); assay: Mobility Shift Assay (MSA) used to determine potency of PTP1B inhibitors; format: biochemical; conditions: Table 2
T2 construct: made in house
T2 sequence (P18031 with tags, fused parts or gaps): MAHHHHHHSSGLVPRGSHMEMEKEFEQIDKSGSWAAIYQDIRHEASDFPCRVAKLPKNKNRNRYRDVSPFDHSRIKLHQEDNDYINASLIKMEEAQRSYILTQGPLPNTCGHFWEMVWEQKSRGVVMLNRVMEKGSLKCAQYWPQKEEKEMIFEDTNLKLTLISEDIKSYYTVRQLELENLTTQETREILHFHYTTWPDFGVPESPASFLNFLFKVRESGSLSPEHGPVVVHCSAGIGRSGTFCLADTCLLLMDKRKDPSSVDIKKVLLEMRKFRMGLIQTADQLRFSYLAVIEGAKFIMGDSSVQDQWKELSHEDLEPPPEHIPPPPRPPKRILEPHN
Procedure: The enzymatic assay used to determine activity is a mobility shift assay using a LabChip EZ Reader by Caliper Life Sciences. The enzymatic reaction was carried out in assay buffer (50 mM HEPES pH 7.5, 1 mM EGTA, 10 mM EDTA, 0.01% Tween® 20, and 2 mM DTT). […] The enzyme (at 0.5 nM) was incubated with compound for 10 minutes at room temperature. […] The % inhibition was then used to calculate the IC50 values.

Row | Compound | pIC50 [1] | pIC50 [2]
1 | CC(C)CCOc1ccc2c(F)c(N3CC(=O)NS3(=O)=O)c(O)cc2c1 [Compound 339, 5-[1-fluoro-3-hydroxy-6-(3-methylbutoxy)naphthalen-2-yl]-1λ^6,2,5-thiadiazolidine-1,1,3-trione] | 7.00 to 8.00 | 7.00 to 8.00
2 | O=C1CN(c2c(O)cc3cc(OCCCC(F)F)ccc3c2F)S(=O)(=O)N1 [Compound 340, 5-[6-(4,4-difluorobutoxy)-1-fluoro-3-hydroxynaphthalen-2-yl]-1λ^6,2,5-thiadiazolidine-1,1,3-trione] | 7.00 to 8.00 | 7.00 to 8.00
3 | C[C@@](O)(CO)CCOc1ccc2cc(O)c(N3CC(=O)NS3(=O)=O)c(F)c2c1 [Compound 341, 5-{7-[(3S)-3,4-dihydroxy-3-methylbutoxy]-1-fluoro-3-hydroxynaphthalen-2-yl}-1λ^6,2,5-thiadiazolidine-1,1,3-trione] | > 9.00 | > 9.00
4 | CC(C)(CO)CCOc1ccc2cc(O)c(N3CC(=O)NS3(=O)=O)c(F)c2c1 [Compound 342, 5-[1-fluoro-3-hydroxy-7-(4-hydroxy-3,3-dimethylbutoxy)naphthalen-2-yl]-1λ^6,2,5-thiadiazolidine-1,1,3-trione] | > 9.00 | > 9.00
5 | C[C@](O)(CO)CCOc1ccc2cc(O)c(N3CC(=O)NS3(=O)=O)c(F)c2c1 [Compound 343, 5-{7-[(3R)-3,4-dihydroxy-3-methylbutoxy]-1-fluoro-3-hydroxynaphthalen-2-yl}-1λ^6,2,5-thiadiazolidine-1,1,3-trione] | > 9.00 | 8.00 to 9.00
6 | CC(C)(CO)CS(=O)(=O)N1CC=C(c2ccc3cc(O)c(N4CC(=O)NS4(=O)=O)c(F)c3c2)C1 [Compound 344, 5-{1-fluoro-3-hydroxy-7-[1-(3-hydroxy-2,2-dimethylpropane-1-sulfonyl)-2,5-dihydro-1H-pyrrol-3-yl]naphthalen-2-yl}-1λ^6,2,5-thiadiazolidine-1,1,3-trione] | > 9.00 | > 9.00
7 | NCCCS(=O)(=O)N1CC=C(c2ccc3cc(O)c(N4CC(=O)NS4(=O)=O)c(F)c3c2)C1 [Compound 345, 5-{7-[1-(3-aminopropane-1-sulfonyl)-2,5-dihydro-1H-pyrrol-3-yl]-1-fluoro-3-hydroxynaphthalen-2-yl}-1λ^6,2,5-thiadiazolidine-1,1,3-trione] | > 9.00 | 8.00 to 9.00
8 | C[C@@](O)(CC#N)CCOc1ccc2cc(O)c(N3CC(=O)NS3(=O)=O)c(F)c2c1 [Compound 346, (3R)-5-{[8-fluoro-6-hydroxy-7-(1,1,4-trioxo-1λ^6,2,5-thiadiazolidin-2-yl)naphthalen-2-yl]oxy}-3-hydroxy-3-methylpentanenitrile] | > 9.00 | > 9.00
9 | C[C@](O)(CC#N)CCOc1ccc2cc(O)c(N3CC(=O)NS3(=O)=O)c(F)c2c1 [Compound 347, (3S)-5-{[8-fluoro-6-hydroxy-7-(1,1,4-trioxo-1λ^6,2,5-thiadiazolidin-2-yl)naphthalen-2-yl]oxy}-3-hydroxy-3-methylpentanenitrile] | > 9.00 | 8.00 to 9.00
10 | CC(C)(CCN)CCOc1ccc2cc(O)c(N3CC(=O)NS3(=O)=O)c(F)c2c1 [Compound 348, 5-{7-[(5-amino-3,3-dimethylpentyl)oxy]-1-fluoro-3-hydroxynaphthalen-2-yl}-1λ^6,2,5-thiadiazolidine-1,1,3-trione] | > 9.00 | > 9.00
11 | CC(C)NCCCc1ccc2cc(O)c(N3CC(=O)NS3(=O)=O)c(F)c2c1 [Compound 349, 5-(1-fluoro-3-hydroxy-7-{3-[(propan-2-yl)amino]propyl}naphthalen-2-yl)-1λ^6,2,5-thiadiazolidine-1,1,3-trione] | 8.00 to 9.00 | 8.00 to 9.00
12 | O=C1CN(c2c(O)cc3ccc(OCCC4CCOC4)cc3c2F)S(=O)(=O)N1 (stereo not drawn) [Compound 350, 5-{1-fluoro-3-hydroxy-7-[2-(oxolan-3-yl)ethoxy]naphthalen-2-yl}-1λ^6,2,5-thiadiazolidine-1,1,3-trione] | > 9.00 | > 9.00
13 | O=C1CN(c2c(O)cc3ccc(OCCC4CCCC4)cc3c2F)S(=O)(=O)N1 [Compound 351, 5-[7-(2-cyclopentylethoxy)-1-fluoro-3-hydroxynaphthalen-2-yl]-1λ^6,2,5-thiadiazolidine-1,1,3-trione] | > 9.00 | > 9.00
14 | CC(C)(C)CCOc1ccc2cc(O)c(N3CC(=O)NS3(=O)=O)c(F)c2c1 [Compound 352, 5-[7-(3,3-dimethylbutoxy)-1-fluoro-3-hydroxynaphthalen-2-yl]-1λ^6,2,5-thiadiazolidine-1,1,3-trione] | > 9.00 | > 9.00
15 | O=C1CN(c2c(O)cc3ccc(OCCC4CCC4)cc3c2F)S(=O)(=O)N1 [Compound 353, 5-[7-(2-cyclobutylethoxy)-1-fluoro-3-hydroxynaphthalen-2-yl]-1λ^6,2,5-thiadiazolidine-1,1,3-trione] | > 9.00 | > 9.00
16 | O=C1CN(c2c(O)cc3ccc(OCCOC(F)(F)F)cc3c2F)S(=O)(=O)N1 [Compound 354, 5-{1-fluoro-3-hydroxy-7-[2-(trifluoromethoxy)ethoxy]naphthalen-2-yl}-1λ^6,2,5-thiadiazolidine-1,1,3-trione] | 8.00 to 9.00 | 8.00 to 9.00
17 | CC(C)(O)CCOc1cc2c(F)c(N3CC(=O)NS3(=O)=O)c(O)cc2cc1O [Compound 355, 5-[1-fluoro-3,6-dihydroxy-7-(3-hydroxy-3-methylbutoxy)naphthalen-2-yl]-1λ^6,2,5-thiadiazolidine-1,1,3-trione] | > 9.00 | > 9.00
18 | O=C1CN(c2c(O)cc3cc(O)c(OCCC4CC4)cc3c2F)S(=O)(=O)N1 [Compound 356, 5-[7-(2-cyclopropylethoxy)-1-fluoro-3,6-dihydroxynaphthalen-2-yl]-1λ^6,2,5-thiadiazolidine-1,1,3-trione] | > 9.00 | > 9.00
19 | COc1cc2c(F)c(N3CC(=O)NS3(=O)=O)c(O)cc2cc1O [Compound 357, 5-(1-fluoro-3,6-dihydroxy-7-methoxynaphthalen-2-yl)-1λ^6,2,5-thiadiazolidine-1,1,3-trione] | 8.00 to 9.00 | 8.00 to 9.00
20 | CCc1cc2c(F)c(N3CC(=O)NS3(=O)=O)c(O)cc2cc1O [Compound 358, 5-(7-ethyl-1-fluoro-3,6-dihydroxynaphthalen-2-yl)-1λ^6,2,5-thiadiazolidine-1,1,3-trione] | 8.00 to 9.00 | 8.00 to 9.00
21 | CC(C)(C)CCOc1cc2c(F)c(N3CC(=O)NS3(=O)=O)c(O)cc2cc1O [Compound 359, 5-[7-(3,3-dimethylbutoxy)-1-fluoro-3,6-dihydroxynaphthalen-2-yl]-1λ^6,2,5-thiadiazolidine-1,1,3-trione] | > 9.00 | > 9.00
22 | O=C1CN(c2c(O)cc3cc(O)c(OCCC4CCCO4)cc3c2F)S(=O)(=O)N1 (stereo not drawn) [Compound 360, 5-{1-fluoro-3,6-dihydroxy-7-[2-(oxolan-2-yl)ethoxy]naphthalen-2-yl}-1λ^6,2,5-thiadiazolidine-1,1,3-trione] | > 9.00 | > 9.00
23 | CC(C)CCOc1cc2c(F)c(N3CC(=O)NS3(=O)=O)c(O)cc2cc1O [Compound 361, 5-[1-fluoro-3,6-dihydroxy-7-(3-methylbutoxy)naphthalen-2-yl]-1λ^6,2,5-thiadiazolidine-1,1,3-trione] | > 9.00 | > 9.00
24 | O=C1CN(c2c(O)cc3cc(O)c(OCCC4CCC4)cc3c2F)S(=O)(=O)N1 [Compound 362, 5-[7-(2-cyclobutylethoxy)-1-fluoro-3,6-dihydroxynaphthalen-2-yl]-1λ^6,2,5-thiadiazolidine-1,1,3-trione] | > 9.00 | > 9.00
